Results from patent US20250059220A1, “SUBSTITUTED BENZOTHIOPHENE DERIVATIVES AND METHODS OF USE THEREOF” (Merck Sharp & Dohme LLC, priority 2021, published 2025).

Tests used:
[1] = molecular target: human PTPN2 (1-387) (Homo sapiens (Human), UniProt P17706); assay: Human PTPN2 Biochemical Assay; conditions: DiFMUP substrate
Outline: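 Human PTPN2 (1-387) preincubated 30 min at RT with compound (10-point 3-fold series) in Tris pH 7.4 buffer with 0.5 mM DTT, then DiFMUP substrate added for 1 h at RT. Fluorescence at ex 360/em 460 nm, normalised to no-enzyme and enzyme controls; EC50 from 4-parameter fit.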

[2] = molecular target: human PTPN1 (1-435) (Homo sapiens (Human), UniProt P18031); assay: Human PTPN1 Biochemical Assay; conditions: DiFMUP substrate, read-out: PTP1B IC50
Outline: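 Read-out is DiFMUP hydrolysis fluorescence (360 nm excitation, 460 nm emission) after 1 h at room temperature, following 30 min enzyme–compound preincubation.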

Chain of human PTPN1 (1-435) (P18031 whole entry): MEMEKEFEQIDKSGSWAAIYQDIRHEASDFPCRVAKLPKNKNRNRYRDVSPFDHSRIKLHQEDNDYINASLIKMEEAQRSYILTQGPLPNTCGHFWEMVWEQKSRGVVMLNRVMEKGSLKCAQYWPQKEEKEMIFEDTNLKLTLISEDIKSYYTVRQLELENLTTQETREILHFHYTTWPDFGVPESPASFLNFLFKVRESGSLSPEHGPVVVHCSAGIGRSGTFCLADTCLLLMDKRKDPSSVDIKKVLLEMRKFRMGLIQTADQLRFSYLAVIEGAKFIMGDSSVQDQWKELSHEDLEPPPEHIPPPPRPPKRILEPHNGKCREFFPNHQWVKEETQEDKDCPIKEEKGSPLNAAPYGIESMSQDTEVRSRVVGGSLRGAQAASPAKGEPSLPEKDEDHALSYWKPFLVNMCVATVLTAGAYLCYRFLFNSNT
Chain of human PTPN2 (1-387) (P17706 other isoform, or with tags, fused parts or gaps): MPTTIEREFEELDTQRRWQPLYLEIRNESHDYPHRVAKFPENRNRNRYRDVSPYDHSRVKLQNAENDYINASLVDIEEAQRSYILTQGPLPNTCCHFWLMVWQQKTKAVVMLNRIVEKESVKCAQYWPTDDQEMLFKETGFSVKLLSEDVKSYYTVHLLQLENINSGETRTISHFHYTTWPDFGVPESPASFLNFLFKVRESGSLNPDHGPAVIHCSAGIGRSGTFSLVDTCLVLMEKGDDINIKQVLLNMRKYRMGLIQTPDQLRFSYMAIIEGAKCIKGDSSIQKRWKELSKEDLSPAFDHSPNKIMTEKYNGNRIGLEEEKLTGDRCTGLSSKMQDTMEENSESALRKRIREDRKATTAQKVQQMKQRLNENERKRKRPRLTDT

O=P(O)(O)C(F)(F)c1sc2c(OCCCC(F)(F)F)cc(CN3CCOCC3)cc2c1Br [Compound 263, ((3-bromo-5-(morpholinomethyl)-7-(4,4,4-trifluorobutoxy)benzo[b]thiophen-2-yl)difluoromethyl)phosphonic acid] was tested, and the IC50 [1] was 651 nM and the IC50 [2] was 386 nM.

O=C(NCc1cncc(C(F)(F)F)c1)c1ccc2sc(C(F)(F)P(=O)(O)O)c(Br)c2c1 [Compound 30] showed an IC50 [1] of 2090 nM and an IC50 [2] of 1840 nM.

Work on CNC(=O)c1cc(OCc2ccc(S(C)(=O)=O)cc2)c2sc(C(F)(F)P(=O)(O)O)c(Br)c2c1 [Compound 409] yielded an IC50 [1] of 2.6 nM and an IC50 [2] of 3.7 nM.

NC(=O)c1cc(OCc2ccc(-c3nccs3)cc2)c2sc(C(F)(F)P(=O)(O)O)c(Br)c2c1 [Compound 354] showed an IC50 [1] of 9.6 nM and an IC50 [2] of 69.7 nM.

N#CCCNC(=O)c1ccc2sc(C(F)(F)P(=O)(O)O)c(Br)c2c1 [Compound 12] was tested, and the IC50 [1] was 8890 nM and the IC50 [2] was 5250 nM.

In the case of Cc1ccc(COc2cc(C(N)=O)cc3c(Br)c(C(F)(F)P(=O)(O)O)sc23)cc1C(F)(F)F [Compound 344], the IC50 [1] is reported as 117 nM and the IC50 [2] is reported as 195 nM.

O=C(NCCc1cnc2n(c1=O)CCCC2)c1ccc2sc(C(F)(F)P(=O)(O)O)c(Br)c2c1 [Compound 72] showed an IC50 [1] of 3520 nM and an IC50 [2] of 2750 nM.

With CS(=O)(=O)N1CCC(Oc2cc(C(N)=O)cc3c(Br)c(C(F)(F)P(=O)(O)O)sc23)C1 (stereo not shown) [Compound 248] the IC50 [1] was 50 nM and the IC50 [2] was 54 nM.

O=C(N[C@H]1CCN(C(=O)C2CC2)C1)c1ccc2sc(C(F)(F)P(=O)(O)O)c(Br)c2c1 [Compound 116] showed an IC50 [1] of 1060 nM and an IC50 [2] of 986 nM.

For O=C(NCc1cn2ccccc2n1)c1ccc2sc(C(F)(F)P(=O)(O)O)c(Br)c2c1 [Compound 142], the IC50 [1] was 1870 nM and the IC50 [2] was 2640 nM.

CNC(=O)c1cc(OCCCS(C)(=O)=O)c2sc(C(F)(F)P(=O)(O)O)c(Br)c2c1 [Compound 319] showed an IC50 [1] of 9.67 nM and an IC50 [2] of 9.2 nM.

O=C(NCCn1cncn1)c1ccc2sc(C(F)(F)P(=O)(O)O)c(Br)c2c1 [Compound 146] gave an IC50 [1] of 7470 nM and an IC50 [2] of 3650 nM.

In the case of O=C(NCCn1nncc1-c1ccccc1)c1ccc2sc(C(F)(F)P(=O)(O)O)c(Br)c2c1 [Compound 150], the IC50 [1] is reported as 6280 nM and the IC50 [2] is reported as 2590 nM.

With NC(=O)c1cc(OCc2ccc(S(N)(=O)=O)cc2)c2sc(C(F)(F)P(=O)(O)O)c(Br)c2c1 [Compound 397] the IC50 [1] was 4.4 nM and the IC50 [2] was 7.7 nM.

With N#Cc1c(C(F)(F)P(=O)(O)O)sc2c(OCCCS(N)(=O)=O)cc(-c3nc[nH]n3)cc12 [Compound 457, ((3-cyano-7-(3-sulfamoylpropoxy)-5-(1H-1,2,4-triazol-3-yl)benzo[b]thiophen-2-yl)difluoromethyl)phosphonic acid] the IC50 [1] was 2.5 nM and the IC50 [2] was 2.5 nM.

Work on Cn1cc(CCNC(=O)c2ccc3sc(C(F)(F)P(=O)(O)O)c(Br)c3c2)c2ccccc21 [Compound 155] yielded an IC50 [1] of 2160 nM and an IC50 [2] of 2380 nM.

For NC(=O)c1cc(OCc2ccc(OC(F)F)cc2)c2sc(C(F)(F)P(=O)(O)O)c(Br)c2c1 [Compound 360], the IC50 [1] was 12.9 nM and the IC50 [2] was 25.2 nM.

For NC(=O)c1cc(OCc2ccc(F)c(C(F)(F)F)c2)c2sc(C(F)(F)P(=O)(O)O)c(Br)c2c1 [Compound 351], the IC50 [1] was 104 nM and the IC50 [2] was 174 nM.

In the case of NC(=O)c1cc(OCc2ccc(C(F)(F)F)cc2)c2sc(C(F)(F)P(=O)(O)O)c(Br)c2c1 [Compound 345], the IC50 [1] is reported as 16.3 nM and the IC50 [2] is reported as 29.5 nM.

Work on COc1ccc(CCC(C)NC(=O)c2ccc3sc(C(F)(F)P(=O)(O)O)c(Br)c3c2)cc1 (stereo not shown) [Compound 87] yielded an IC50 [1] of 3300 nM and an IC50 [2] of 7090 nM.

Cc1c(C(F)(F)P(=O)(O)O)sc2c(OCCCC(C)(C)O)cc(C(N)=O)cc12 [Compound 437] gave an IC50 [1] of 109 nM and an IC50 [2] of 153 nM.

With Cc1c(C(F)(F)P(=O)(O)O)sc2c(OCCCS(C)(=O)=O)cc(C(N)=O)cc12 [Compound 429, ((5-carbamoyl-3-methyl-7-(3-(methylsulfonyl)propoxy)benzo[b]thiophen-2-yl)difluoromethyl)phosphonic acid] the IC50 [1] was 87.2 nM and the IC50 [2] was 82.1 nM.

With CS(=O)(=O)CCCOc1cc(-c2cnn[nH]2)cc2c(Br)c(C(F)(F)P(=O)(O)O)sc12 [Compound 364] the IC50 [1] was 2.5 nM and the IC50 [2] was 2.6 nM.

For NC(=O)c1cc(OCCCNS(=O)(=O)C(F)(F)F)c2sc(C(F)(F)P(=O)(O)O)c(Br)c2c1 [Compound 334], the IC50 [1] was 77.7 nM and the IC50 [2] was 65.8 nM.

CS(=O)(=O)N1CCC(NC(=O)c2ccc3sc(C(F)(F)P(=O)(O)O)c(Br)c3c2)CC1 [Compound 44] showed an IC50 [1] of 3060 nM and an IC50 [2] of 2470 nM.

With COCCCCNC(=O)c1ccc2sc(C(F)(F)P(=O)(O)O)c(Br)c2c1 [Compound 45] the IC50 [1] was 5170 nM and the IC50 [2] was 4080 nM.

CC(C)CNC(=O)c1ccc2sc(C(F)(F)P(=O)(O)O)c(Br)c2c1 [Compound 55] showed an IC50 [1] of 9700 nM and an IC50 [2] of 7620 nM.

In the case of O=P(O)(O)C(F)(F)c1sc2c(NCCC3CCCCC3)cccc2c1Br [Compound 223, ((3-bromo-7-((2-cyclohexylethyl)amino)benzo[b]thiophen-2-yl)difluoromethyl)phosphonic acid], the IC50 [1] is reported as 3210 nM and the IC50 [2] is reported as 2440 nM.

With O=C(Nc1ccccc1)c1cc(OCCCC(F)(F)F)c2sc(C(F)(F)P(=O)(O)O)c(Br)c2c1 [Compound 205] the IC50 [1] was 6.95 nM and the IC50 [2] was 7.5 nM.

In the case of N#Cc1ccc2c(c1)CC(NC(=O)c1ccc3sc(C(F)(F)P(=O)(O)O)c(Br)c3c1)C2 (stereo not shown) [Compound 83], the IC50 [1] is reported as 2010 nM and the IC50 [2] is reported as 1630 nM.

CC(F)(F)CCOc1cc(C(N)=O)cc2c(Br)c(C(F)(F)P(=O)(O)O)sc12 [Compound 327] was tested, and the IC50 [1] was 266 nM and the IC50 [2] was 233 nM.

NC(c1cc(OCCCC(F)(F)F)c2sc(C(F)(F)P(=O)(O)O)c(Br)c2c1)C(F)(F)F (single isomer, unassigned) [Compound 261, (R or S)-((5-(1-amino-2,2,2-trifluoroethyl)-3-bromo-7-(4,4,4-trifluorobutoxy)benzo[b]thiophen-2-yl)difluoromethyl)phosphonic acid] was tested, and the IC50 [1] was 5880 nM and the IC50 [2] was 2020 nM.

NC(=O)c1cc(OCc2cccc3ccccc23)c2sc(C(F)(F)P(=O)(O)O)c(Br)c2c1 [Compound 385] gave an IC50 [1] of 124 nM and an IC50 [2] of 166 nM.

Work on CCn1nccc1NC(=O)c1ccc2sc(C(F)(F)P(=O)(O)O)c(Br)c2c1 [Compound 99] yielded an IC50 [1] of 3790 nM and an IC50 [2] of 2620 nM.

With CS(=O)(=O)CCCCOc1cc(C(N)=O)cc2c(Br)c(C(F)(F)P(=O)(O)O)sc12 [Compound 318] the IC50 [1] was 34.8 nM and the IC50 [2] was 52.6 nM.

Work on Cc1c(C(F)(F)P(=O)(O)O)sc2c(OCCCS(C)(=O)=O)cc(-c3c[nH]nn3)cc12 [Compound 451, (difluoro(3-methyl-7-(3-(methylsulfonyl)propoxy)-5-(1H-1,2,3-triazol-4-yl)benzo[b]thiophen-2-yl)methyl)phosphonic acid] yielded an IC50 [1] of 14.6 nM and an IC50 [2] of 16.5 nM.

In the case of COCCCNC(=O)c1ccc2sc(C(F)(F)P(=O)(O)O)c(Br)c2c1 [Compound 125], the IC50 [1] is reported as 6520 nM and the IC50 [2] is reported as 5230 nM.

With N#CCCCNC(=O)c1ccc2sc(C(F)(F)P(=O)(O)O)c(Br)c2c1 [Compound 34] the IC50 [1] was 5860 nM and the IC50 [2] was 4480 nM.

For O=C(NCc1cncnc1)c1ccc2sc(C(F)(F)P(=O)(O)O)c(Br)c2c1 [Compound 42], the IC50 [1] was 2380 nM and the IC50 [2] was 1780 nM.

Work on O=P(O)(O)C(F)(F)c1sc2ccc(OCCc3ccccc3)cc2c1Br [Compound 221, ((3-bromo-5-phenethoxybenzo[b]thiophen-2-yl)difluoromethyl)phosphonic acid] yielded an IC50 [1] of 6680 nM and an IC50 [2] of 3460 nM.

NC(=O)c1cc(OCCCC(F)(F)F)c2sc(C(F)(F)P(=O)(O)O)c(Br)c2c1 [Compound 168] was tested, and the IC50 [1] was 29.7 nM and the IC50 [2] was 28.2 nM.

NC(=O)c1cc(OCc2ccc(C3CCN(CC(F)(F)F)CC3)cc2)c2sc(C(F)(F)P(=O)(O)O)c(Br)c2c1 [Compound 350] was tested, and the IC50 [1] was 159 nM and the IC50 [2] was 406 nM.

For Cc1cc(CNC(=O)c2ccc3sc(C(F)(F)P(=O)(O)O)c(Br)c3c2)no1 [Compound 190], the IC50 [1] was 1830 nM and the IC50 [2] was 1020 nM.

With CS(=O)(=O)c1ccc(COc2cc(C(N)=O)cc3c(Br)c(C(F)(F)P(=O)(O)O)sc23)c(C#N)c1 [Compound 463, ((3-bromo-5-carbamoyl-7-((2-cyano-4-(methylsulfonyl)benzyl)oxy)benzo[b]thiophen-2-yl)difluoromethyl)phosphonic acid] the IC50 [1] was 6.7 nM and the IC50 [2] was 14.8 nM.

Compound O=P(O)(O)C(F)(F)c1sc2c(OCC3CC3(F)F)cc(-c3cnn[nH]3)cc2c1Br (stereo not shown) [Compound 368] has an IC50 [1] of 3.53 nM and an IC50 [2] of 3.1 nM.

For O=C(NCc1cccnn1)c1cc(OCCCCn2ccnc2)c2sc(C(F)(F)P(=O)(O)O)c(Br)c2c1 [Compound 265], the IC50 [1] was 60.3 nM and the IC50 [2] was 62 nM.

CC(NC(=O)c1ccc2sc(C(F)(F)P(=O)(O)O)c(Br)c2c1)c1cnccn1 (stereo not shown) [Compound 103] was tested, and the IC50 [1] was 3460 nM and the IC50 [2] was 3140 nM.

CS(=O)(=O)CCCOc1cc(-c2cc(=O)cc[nH]2)cc2c(Br)c(C(F)(F)P(=O)(O)O)sc12 [Compound 460, ((3-bromo-7-(3-(methylsulfonyl)propoxy)-5-(4-oxo-1,4-dihydropyridin-2-yl)benzo[b]thiophen-2-yl)difluoromethyl)phosphonic acid] gave an IC50 [1] of 2.5 nM and an IC50 [2] of 2.5 nM.

Work on N#Cc1cc(OCCCC(F)(F)F)c2sc(C(F)(F)P(=O)(O)O)c(Br)c2c1 [Compound 233, ((3-bromo-5-cyano-7-(4,4,4-trifluorobutoxy)benzo[b]thiophen-2-yl)difluoromethyl)phosphonic acid] yielded an IC50 [1] of 146 nM and an IC50 [2] of 77 nM.

Work on N=C(N)c1cc(OCCCC(F)(F)F)c2sc(C(F)(F)P(=O)(O)O)c(Br)c2c1 [Compound 262, ((3-bromo-5-carbamimidoyl-7-(4,4,4-trifluorobutoxy)benzo[b]thiophen-2-yl)difluoromethyl)phosphonic acid] yielded an IC50 [1] of 113 nM and an IC50 [2] of 42 nM.
